Assay results reported in ChEMBL document CHEMBL1201862, “PubChem BioAssay data set” (2004).
Active and inactive are the calls of the source.

Assays:
[1] = target: fMet-Leu-Phe receptor (Homo sapiens, UniProt P21462); assay: FPR ligands, dose response (AID 519); format: functional
[2] = HEK293 cell cytotoxicity, dose response, cytotoxicity control, cherry-picks, set 5 (AID 1053117); format: functional, cell-based
[3] = inhibitors of fibronectin matrix deposition, dose response, AH1F cells, Alexa488-FN fluorescence, cherry-picks (AID 1035475); format: functional, cell-based
[4] = HEK293T cytotoxicity, dose response, cytotoxicity control for miR-122 modulator project, cell-based, activator set, cherry-pick (AID 720690); format: functional;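 note: HEK293T human cells scored for general mammalian cytotoxicity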
[5] = miR-122 activators in hepatoma reporter cells, dose response, cell-based, Huh7 psiCHECK-miR122, Renilla luciferase, cherry-picked (AID 651956); format: functional;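 note: huh7 hepatoma cells stably carrying a psiCHECK-2 miR-122 sensor plasmid; renilla luciferase signal reporting endogenous miR-122 activity after 48 h compound exposure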
[6] = IGROV1 ovarian cancer cell cytotoxicity, dose response, PAX8 inhibitor project, plate reader, dry powder samples (AID 743043); format: functional, cell-based; settings: IGROV-1
[7] = non-specific cell cytotoxicity, dose response, cytotoxicity control for PAX8 inhibitor project, plate reader, dry powder samples (AID 743021); format: functional, cell-based
[8] = cytotoxicity in OVCAR8 ovarian cancer cells, dose response, PAX8 project, cell-based, plate reader, dry powder samples (AID 743197); format: functional; settings: OVCAR-8
[9] = target: Paired box protein Pax-8 (Homo sapiens, UniProt Q06710); assay: inhibitors of PAX8-driven TPO luciferase reporter, dose response, RMG-I cells, cherry-pick (AID 687027); format: functional, cell-based;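 note: luciferase reporter driven by Pax8 target thyroperoxidase promoter measured by SteadyGlo luminescence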
Chain of Paired box protein Pax-8 (Q06710 whole entry): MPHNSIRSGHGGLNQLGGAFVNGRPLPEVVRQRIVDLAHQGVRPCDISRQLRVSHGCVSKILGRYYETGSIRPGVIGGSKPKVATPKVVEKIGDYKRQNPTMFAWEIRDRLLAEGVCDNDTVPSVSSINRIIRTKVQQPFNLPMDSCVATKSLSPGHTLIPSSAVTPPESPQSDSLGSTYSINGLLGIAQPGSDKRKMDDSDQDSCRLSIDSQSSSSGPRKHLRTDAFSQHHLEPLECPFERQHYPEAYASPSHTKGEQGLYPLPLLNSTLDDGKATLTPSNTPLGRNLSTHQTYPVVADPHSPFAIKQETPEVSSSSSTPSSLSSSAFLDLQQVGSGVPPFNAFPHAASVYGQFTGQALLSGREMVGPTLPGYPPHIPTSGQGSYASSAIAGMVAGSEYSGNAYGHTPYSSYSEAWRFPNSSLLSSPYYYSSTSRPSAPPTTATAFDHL

[10] = NIH:OVCAR-3 ovarian cancer cell cytotoxicity, dose response, PAX8 inhibitor project, plate reader, dry powder samples (AID 743044); format: functional, cell-based
[11] = target: 1-phosphatidylinositol 4,5-bisphosphate phosphodiesterase gamma-1 (Homo sapiens, UniProt P19174); assay: Counterscreen for inhibitors of phospholipase C isozymes (PLC-B3): Fluorescence-based biochemical high throughput dose response assay to identify inhibitors of phospholipase C isozymes (PLC-gamma1).
Chain of 1-phosphatidylinositol 4,5-bisphosphate phosphodiesterase gamma-1 (P19174 whole entry): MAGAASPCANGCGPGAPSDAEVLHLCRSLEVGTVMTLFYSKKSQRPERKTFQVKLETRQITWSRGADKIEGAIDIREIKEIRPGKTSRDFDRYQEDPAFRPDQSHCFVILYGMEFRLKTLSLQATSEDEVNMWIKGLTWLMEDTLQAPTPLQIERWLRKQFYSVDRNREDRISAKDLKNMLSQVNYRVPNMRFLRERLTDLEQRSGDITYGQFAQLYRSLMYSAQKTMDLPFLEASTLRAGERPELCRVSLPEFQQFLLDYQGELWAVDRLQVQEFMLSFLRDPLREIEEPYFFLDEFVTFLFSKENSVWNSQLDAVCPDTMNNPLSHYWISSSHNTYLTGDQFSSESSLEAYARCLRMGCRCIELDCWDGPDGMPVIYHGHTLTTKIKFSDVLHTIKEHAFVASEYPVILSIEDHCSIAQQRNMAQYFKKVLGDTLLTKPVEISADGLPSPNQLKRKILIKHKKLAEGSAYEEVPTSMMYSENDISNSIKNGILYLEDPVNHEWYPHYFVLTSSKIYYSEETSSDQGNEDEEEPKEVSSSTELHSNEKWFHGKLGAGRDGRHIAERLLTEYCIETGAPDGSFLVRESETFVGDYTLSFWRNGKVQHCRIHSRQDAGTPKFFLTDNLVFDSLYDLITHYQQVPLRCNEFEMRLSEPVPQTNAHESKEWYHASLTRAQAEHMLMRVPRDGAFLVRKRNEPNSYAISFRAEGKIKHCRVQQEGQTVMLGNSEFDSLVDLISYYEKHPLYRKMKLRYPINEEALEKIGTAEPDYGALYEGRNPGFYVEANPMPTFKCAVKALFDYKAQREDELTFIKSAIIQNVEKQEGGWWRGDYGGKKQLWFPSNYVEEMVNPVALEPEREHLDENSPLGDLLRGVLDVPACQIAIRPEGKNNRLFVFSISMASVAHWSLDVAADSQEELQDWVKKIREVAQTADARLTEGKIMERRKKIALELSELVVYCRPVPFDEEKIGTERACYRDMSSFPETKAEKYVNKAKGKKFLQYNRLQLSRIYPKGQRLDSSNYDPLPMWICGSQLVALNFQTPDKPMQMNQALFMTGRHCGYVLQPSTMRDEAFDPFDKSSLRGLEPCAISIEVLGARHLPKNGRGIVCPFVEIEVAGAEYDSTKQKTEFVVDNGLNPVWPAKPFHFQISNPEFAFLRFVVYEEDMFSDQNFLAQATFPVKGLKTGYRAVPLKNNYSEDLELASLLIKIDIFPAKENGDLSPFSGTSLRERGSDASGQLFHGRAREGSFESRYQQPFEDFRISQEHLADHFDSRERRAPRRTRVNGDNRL

[12] = target: 1-phosphatidylinositol 4,5-bisphosphate phosphodiesterase beta-3 (Homo sapiens, UniProt Q01970); assay: Fluorescence-based biochemical high throughput dose response assay to identify inhibitors of phospholipase C isozymes (PLC-B3).
Chain of 1-phosphatidylinositol 4,5-bisphosphate phosphodiesterase beta-3 (Q01970 whole entry): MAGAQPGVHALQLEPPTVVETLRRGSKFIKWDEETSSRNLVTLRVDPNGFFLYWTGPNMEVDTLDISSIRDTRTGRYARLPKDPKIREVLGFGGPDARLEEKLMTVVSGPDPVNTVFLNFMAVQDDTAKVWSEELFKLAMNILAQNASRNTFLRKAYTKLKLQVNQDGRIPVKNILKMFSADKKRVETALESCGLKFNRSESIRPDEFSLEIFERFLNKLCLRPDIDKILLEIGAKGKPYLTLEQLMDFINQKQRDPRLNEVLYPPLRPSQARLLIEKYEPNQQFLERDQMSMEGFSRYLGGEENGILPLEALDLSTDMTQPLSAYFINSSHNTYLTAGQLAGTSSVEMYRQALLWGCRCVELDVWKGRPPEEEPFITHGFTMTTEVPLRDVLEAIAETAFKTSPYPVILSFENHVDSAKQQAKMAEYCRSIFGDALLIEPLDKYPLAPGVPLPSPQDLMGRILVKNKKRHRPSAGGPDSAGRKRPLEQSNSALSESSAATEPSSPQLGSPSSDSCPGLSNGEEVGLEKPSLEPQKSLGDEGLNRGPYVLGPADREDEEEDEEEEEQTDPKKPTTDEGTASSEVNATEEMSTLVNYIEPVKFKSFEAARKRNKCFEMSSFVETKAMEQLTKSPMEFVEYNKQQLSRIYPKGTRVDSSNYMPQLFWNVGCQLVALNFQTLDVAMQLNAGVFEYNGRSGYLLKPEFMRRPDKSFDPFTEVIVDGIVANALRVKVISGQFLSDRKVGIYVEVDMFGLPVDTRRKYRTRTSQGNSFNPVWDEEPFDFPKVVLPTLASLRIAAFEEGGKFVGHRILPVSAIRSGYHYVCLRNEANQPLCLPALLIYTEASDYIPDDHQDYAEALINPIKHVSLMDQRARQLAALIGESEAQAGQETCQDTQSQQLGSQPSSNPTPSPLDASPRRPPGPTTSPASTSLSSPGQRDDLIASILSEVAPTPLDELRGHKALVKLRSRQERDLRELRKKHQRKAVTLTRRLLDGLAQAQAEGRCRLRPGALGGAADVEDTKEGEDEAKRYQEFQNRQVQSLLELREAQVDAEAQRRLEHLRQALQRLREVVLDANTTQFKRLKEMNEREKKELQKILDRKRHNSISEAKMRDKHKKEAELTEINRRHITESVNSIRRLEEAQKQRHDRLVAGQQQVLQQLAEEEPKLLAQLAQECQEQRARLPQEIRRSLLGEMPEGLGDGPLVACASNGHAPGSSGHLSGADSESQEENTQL

[13] = target: Potassium channel subfamily K member 9 (Homo sapiens, UniProt Q9NPC2); assay: TASK3 (KCNK9) channel inhibitors, thallium flux, SAR follow-up, selectivity assay for TASK1 inhibitor project, cell-based, FluxOR thallium flux, concentration-response (AID 652211); format: functional;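 note: potency is for inhibitors of the channel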
Chain of Potassium channel subfamily K member 9 (Q9NPC2 whole entry): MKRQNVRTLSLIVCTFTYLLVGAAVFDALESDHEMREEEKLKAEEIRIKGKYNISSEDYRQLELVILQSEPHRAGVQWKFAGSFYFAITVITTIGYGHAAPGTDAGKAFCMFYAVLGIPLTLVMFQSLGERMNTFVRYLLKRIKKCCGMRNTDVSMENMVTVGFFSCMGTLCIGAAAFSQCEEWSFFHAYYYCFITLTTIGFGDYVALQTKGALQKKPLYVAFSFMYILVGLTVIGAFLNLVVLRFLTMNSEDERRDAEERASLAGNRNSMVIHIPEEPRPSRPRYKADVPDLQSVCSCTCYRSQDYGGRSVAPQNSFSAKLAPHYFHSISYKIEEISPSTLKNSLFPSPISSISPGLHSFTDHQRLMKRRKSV

[14] = HepG2 cell cytotoxicity, dose response, cytotoxicity control, cherry-picks, set 5 (AID 1053118); format: functional, cell-based
[15] = A549 cell cytotoxicity, dose response, cytotoxicity control, cherry-picks, 26 µM top dose (AID 1053119); format: functional, cell-based
[16] = tested on: H9c2; assay: cells; format: functional, cell-based; settings: Rattus norvegicus, H9c2, Myocardium;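 note: confirmatory concentration-response retest of ultra-high-throughput screening hits for modulation of myocardial damage; cell death induced by hydrogen peroxide oxidative stress; compound pretreatment for 60 min then peroxide exposure for 2 h; potency is for protecting the cells against peroxide damage rather than for killing them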
[17] = target: Histone-lysine N-methyltransferase NSD2 (Homo sapiens, UniProt O96028); format: biochemical
[18] = target: T1, Sentrin-specific protease 8 (Homo sapiens, UniProt Q96LD8); format: functional
T1 sequence (Q96LD8 whole entry): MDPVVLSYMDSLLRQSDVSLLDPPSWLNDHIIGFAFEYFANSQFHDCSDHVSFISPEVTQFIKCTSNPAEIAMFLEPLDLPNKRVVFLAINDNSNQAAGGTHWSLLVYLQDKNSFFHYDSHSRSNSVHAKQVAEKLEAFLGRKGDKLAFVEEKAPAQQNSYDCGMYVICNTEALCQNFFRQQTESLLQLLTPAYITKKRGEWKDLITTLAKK

[19] = target: Tyrosyl-DNA phosphodiesterase 2 (Homo sapiens, UniProt O95551); assay: human TDP2 enzyme inhibitors, dose response, biochemical, epi absorbance, IC50 (AID 743297)
Chain of Tyrosyl-DNA phosphodiesterase 2 (O95551 whole entry): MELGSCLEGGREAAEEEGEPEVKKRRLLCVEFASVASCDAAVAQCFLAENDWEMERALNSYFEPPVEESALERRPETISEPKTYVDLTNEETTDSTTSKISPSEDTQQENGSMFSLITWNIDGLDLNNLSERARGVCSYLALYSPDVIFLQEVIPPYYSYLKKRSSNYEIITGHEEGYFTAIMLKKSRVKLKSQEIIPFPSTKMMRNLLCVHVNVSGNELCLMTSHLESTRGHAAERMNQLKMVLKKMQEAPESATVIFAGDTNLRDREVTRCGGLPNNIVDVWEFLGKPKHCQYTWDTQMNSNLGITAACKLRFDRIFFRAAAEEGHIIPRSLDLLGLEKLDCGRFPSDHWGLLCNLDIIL

[20] = target: T1, Sentrin-specific protease 8; format: functional; remark: listed apart in the source
[21] = target: T2, Heat shock factor protein 1 (Mus musculus, UniProt P38532); assay: inhibition of MG132-induced HSE-luciferase signal, confirmation, cell-based, NIH3T3, luminescence, dose retest (AID 2382); format: functional;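 note: NIH3T3 fibroblasts with HSF1-driven luciferase reporter stressed by proteasome inhibitor MG132; luminescence from HSF1-driven luciferase expression after 8 hours of MG132 stress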
T2 sequence (P38532 whole entry): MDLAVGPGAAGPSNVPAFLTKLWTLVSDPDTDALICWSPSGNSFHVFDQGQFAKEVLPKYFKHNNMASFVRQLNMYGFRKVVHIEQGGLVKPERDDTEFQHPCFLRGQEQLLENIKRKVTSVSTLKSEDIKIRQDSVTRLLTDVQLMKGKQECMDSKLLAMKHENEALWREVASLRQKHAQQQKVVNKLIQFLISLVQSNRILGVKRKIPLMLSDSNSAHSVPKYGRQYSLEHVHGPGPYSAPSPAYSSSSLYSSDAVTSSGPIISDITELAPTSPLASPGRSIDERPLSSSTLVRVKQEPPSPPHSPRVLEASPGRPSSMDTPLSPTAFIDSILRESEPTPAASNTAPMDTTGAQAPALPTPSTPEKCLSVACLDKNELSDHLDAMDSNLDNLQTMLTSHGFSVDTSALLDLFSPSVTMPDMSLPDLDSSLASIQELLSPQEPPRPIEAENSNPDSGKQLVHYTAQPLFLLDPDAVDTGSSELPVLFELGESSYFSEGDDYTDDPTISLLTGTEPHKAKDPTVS

[22] = target: T3, Replicative DNA helicase DnaB (Mycobacterium tuberculosis, UniProt P9WMR3); assay: DnaB intein splicing inhibitors, dose response, biochemical, cell-free fluorescence (AID 449749); format: functional
T3 sequence (P9WMR3 whole entry): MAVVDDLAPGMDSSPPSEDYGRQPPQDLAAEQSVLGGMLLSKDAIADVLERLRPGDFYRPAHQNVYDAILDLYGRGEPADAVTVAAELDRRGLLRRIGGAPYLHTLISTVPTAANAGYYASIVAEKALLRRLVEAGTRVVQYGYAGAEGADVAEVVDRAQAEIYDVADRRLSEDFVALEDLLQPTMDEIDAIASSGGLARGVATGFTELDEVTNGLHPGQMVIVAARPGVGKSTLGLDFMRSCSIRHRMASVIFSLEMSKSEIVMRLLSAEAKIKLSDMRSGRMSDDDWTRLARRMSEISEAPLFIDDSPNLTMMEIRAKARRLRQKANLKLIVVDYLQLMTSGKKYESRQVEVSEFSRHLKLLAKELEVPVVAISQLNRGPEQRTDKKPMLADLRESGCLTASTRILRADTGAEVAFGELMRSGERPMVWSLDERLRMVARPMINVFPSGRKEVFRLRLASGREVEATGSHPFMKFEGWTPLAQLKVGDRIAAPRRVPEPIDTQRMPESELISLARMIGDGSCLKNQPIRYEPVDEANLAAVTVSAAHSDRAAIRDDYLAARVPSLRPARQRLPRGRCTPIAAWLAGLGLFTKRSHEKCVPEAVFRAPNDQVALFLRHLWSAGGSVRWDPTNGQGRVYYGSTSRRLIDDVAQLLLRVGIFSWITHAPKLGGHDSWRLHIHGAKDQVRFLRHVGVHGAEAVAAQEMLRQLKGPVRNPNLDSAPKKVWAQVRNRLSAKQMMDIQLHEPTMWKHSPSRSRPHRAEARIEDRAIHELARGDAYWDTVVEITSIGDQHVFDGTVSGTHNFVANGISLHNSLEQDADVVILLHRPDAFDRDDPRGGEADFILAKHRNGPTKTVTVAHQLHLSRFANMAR

[23] = target: T4, Protein RecA (Mycobacterium tuberculosis, UniProt P9WHJ3); assay: Fluorescence Cell-Free Homogeneous Dose Retest to Identify Inhibitors of RecA-Intein Splicing Activity. [Related pubchem assays (depositor defined):AID2097, AID2223, AID489010, AID492950]; format: functional
T4 sequence (P9WHJ3 whole entry): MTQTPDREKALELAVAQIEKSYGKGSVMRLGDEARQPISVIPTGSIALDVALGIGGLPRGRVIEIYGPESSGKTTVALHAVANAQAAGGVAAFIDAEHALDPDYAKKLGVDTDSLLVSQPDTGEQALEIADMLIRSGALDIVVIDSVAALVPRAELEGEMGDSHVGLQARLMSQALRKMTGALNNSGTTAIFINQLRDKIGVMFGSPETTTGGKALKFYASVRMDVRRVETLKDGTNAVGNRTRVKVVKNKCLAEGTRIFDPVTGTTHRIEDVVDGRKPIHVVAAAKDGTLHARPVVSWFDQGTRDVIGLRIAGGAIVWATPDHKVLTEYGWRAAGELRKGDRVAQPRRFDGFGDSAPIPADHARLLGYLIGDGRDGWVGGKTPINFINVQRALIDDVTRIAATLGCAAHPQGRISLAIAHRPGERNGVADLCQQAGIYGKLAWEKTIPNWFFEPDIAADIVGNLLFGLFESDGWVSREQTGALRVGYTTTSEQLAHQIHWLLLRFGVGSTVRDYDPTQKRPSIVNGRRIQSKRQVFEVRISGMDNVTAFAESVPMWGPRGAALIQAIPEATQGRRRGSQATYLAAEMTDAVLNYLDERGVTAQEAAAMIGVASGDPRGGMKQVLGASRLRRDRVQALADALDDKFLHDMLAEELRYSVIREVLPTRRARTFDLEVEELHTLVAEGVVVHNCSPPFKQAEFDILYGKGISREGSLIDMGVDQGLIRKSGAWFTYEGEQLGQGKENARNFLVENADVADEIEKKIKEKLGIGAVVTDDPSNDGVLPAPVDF

[24] = HepG2 cell cytotoxicity, dose response, cytotoxicity control, cherry-picked samples (AID 1159577); format: functional, cell-based
[25] = P. falciparum Dd2 growth inhibitors, dose response, SYBR Green, cherry-picked samples (AID 1159567); format: functional, cell-based
[26] = target: T5, Trace amine-associated receptor 1 (Homo sapiens, UniProt Q96RJ0); assay: Fluorescence-based cell-based high throughput dose response assay to identify agonists of the human trace amine associated receptor 1 (TAAR1).; format: functional
T5 sequence (Q96RJ0 whole entry): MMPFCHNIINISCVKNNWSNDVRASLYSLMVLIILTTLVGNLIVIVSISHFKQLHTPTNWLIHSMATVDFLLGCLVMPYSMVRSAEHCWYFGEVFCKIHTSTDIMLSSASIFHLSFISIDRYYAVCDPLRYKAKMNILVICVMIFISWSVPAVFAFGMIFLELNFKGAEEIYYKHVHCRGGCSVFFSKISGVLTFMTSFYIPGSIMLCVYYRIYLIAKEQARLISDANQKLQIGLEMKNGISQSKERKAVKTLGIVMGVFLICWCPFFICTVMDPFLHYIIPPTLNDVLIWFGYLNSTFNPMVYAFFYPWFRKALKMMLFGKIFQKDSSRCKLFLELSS

[27] = cells; format: functional, cell-based
[28] = target: T5, Trace amine-associated receptor 1; assay: Counterscreen for agonists of the human trace amine associated receptor 1 (hTAAR1): Fluorescence-based cell-based high throughput dose response assay to identify hTAAR1 agonist that also desensitize TAAR1 receptor response.; format: functional
[29] = cells; format: functional, cell-based; remark: listed apart in the source
[30] = target: T2, Heat shock factor protein 1; assay: HSF1 potentiators in luciferase reporter cells, confirmation, cell-based, NIH3T3, luminescence, dose retest (AID 435004); format: functional;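 note: stress induced by proteasome inhibitor MG132 added 30 min after compound; luciferase reporter driven by HSF1 response element in NIH3T3 cells; actives raise luminescence as potentiators of the MG132 stress response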

Chain of fMet-Leu-Phe receptor (P21462 whole entry): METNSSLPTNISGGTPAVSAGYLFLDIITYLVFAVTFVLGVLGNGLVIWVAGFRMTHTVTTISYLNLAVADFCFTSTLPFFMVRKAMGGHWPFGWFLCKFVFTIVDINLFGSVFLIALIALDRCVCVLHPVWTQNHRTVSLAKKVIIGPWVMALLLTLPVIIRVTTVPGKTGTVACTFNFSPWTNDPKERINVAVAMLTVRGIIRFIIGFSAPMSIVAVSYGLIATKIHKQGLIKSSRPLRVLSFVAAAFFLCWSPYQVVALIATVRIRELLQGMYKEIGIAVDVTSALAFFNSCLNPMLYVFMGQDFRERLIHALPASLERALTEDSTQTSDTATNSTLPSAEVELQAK

Compound: C/C(=C1/SC(N2CCCC2)=NC1=O)c1ccc(Br)cc1
- Ki [1]: > 66.7 µM (inactive)

Compound: C[C@@H]1CN([C@@H](C)CO)C(=O)c2cc(NC(=O)C3CCCCC3)ccc2O[C@H]1CN(C)Cc1ccc(-c2ccccc2)cc1
- AC50 [2]: > 52 µM (inactive)
- AC50 [3]: 30.9 µM (active)

Compound: CCOc1ccc(C2C(C(=O)c3ccco3)=C(O)C(=O)N2Cc2cccnc2)cc1 (stereo not given)
- Ki [1]: 15.3 µM (inactive)

Compound: CN1C(=O)c2cc(NC(=O)c3ccc(C(F)(F)F)cc3)ccc2OC[C@@H]2O[C@H](CC(=O)NCc3ccc4c(c3)OCO4)CC[C@H]21
- AC50 [4]: 34.9 µM (active)
- AC50 [5]: 53.6 µM (active)

Compound: COc1ccc(NC(=O)N2CCCCN3[C@H](CO)[C@H](c4ccc(C#CCC(C)C)cc4)[C@H]3C2)cc1
- AC50 [4]: 16 µM (active)
- AC50 [5]: 7.68 µM (active)

Compound: COc1ccc(-c2ccc3c(c2)[C@H]2[C@H](CCN2S(=O)(=O)c2ccc(F)cc2)[C@H](CO)N3C)cc1
- AC50 [6]: 34.4 µM (active)
- AC50 [7]: 63.7 µM (active)
- AC50 [8]: 31.8 µM (active)
- AC50 [9]: 8.98 µM (active)
- AC50 [10]: 19.3 µM (active)

Compound: CCOC(=O)CSc1nnc(Cn2c(=O)sc3ccccc32)n1-c1ccccc1C
- IC50 [11]: > 122 µM (inactive)
- IC50 [12]: > 122 µM (inactive)

Compound: Cc1cccc(C(=O)Nc2cccc(NC(=O)c3cccc(C)c3)c2)c1
- IC50 [13]: 0.99 µM (active)

Compound: O=S(=O)(c1ccc(Cl)cc1)c1cnc2ccccc2n1
- IC50 [11]: > 123 µM (inactive)
- IC50 [12]: > 123 µM (inactive)

Compound: O=S(=O)(c1cccc(F)c1)N1CC[C@@H]2[C@H](CO)Nc3ccc(-c4cccc(F)c4)cc3[C@@H]21
- AC50 [14]: 42 µM (active)
- AC50 [15]: 33.4 µM (active)
- AC50 [2]: 27.2 µM (active)
- AC50 [3]: > 70 µM (inactive)

Compound: O=C(CN1CCN(S(=O)(=O)c2ccc(Br)cc2)CC1)c1ccc(O)c(O)c1
- IC50 [16]: > 79 µM (inactive)
- AC50 [17]: 8.3 µM (active)

Compound: Nn1cnnc1N/N=C/c1ccc(Cl)c([N+](=O)[O-])c1
- IC50 [18]: 23.2 µM (active)
- IC50 [19]: 81.2 µM (inactive)
- IC50 [20]: 21.7 µM (active)
- EC50 [21]: 10.2 µM (active)
- AC50 [22]: 18.1 µM (active)
- EC50 [23]: 10.3 µM (active)

Compound: CO[C@@H]1CN(C)C(=O)c2cc(NC(=O)Nc3ccc(Cl)c(Cl)c3)ccc2OC[C@@H](C)NC[C@@H]1C
- AC50 [14]: > 52 µM (inactive)
- AC50 [24]: 18.2 µM (active)
- AC50 [15]: > 52 µM (inactive)
- AC50 [2]: 45.9 µM (active)
- AC50 [25]: 5.7 µM (active)

Compound: c1ccc2c3c([nH]c2c1)CCNC3
- EC50 [26]: 0.412 µM (active)
- EC50 [27]: > 29.9 µM (inactive)
- IC50 [28]: 1.77 µM (active)
- IC50 [29]: > 29.9 µM (inactive)
- EC50 [30]: > 260 µM (inactive)
